From patent US11623014B2, “Mini-gastrin analogue, in particular for use in CCK2 receptor positive tumour diagnosis and/or treatment” (Paul Scherrer Institut, priority 2013, dated 2023)

Assays:
[1] = Stability of 177Lu-labelled mini-gastrin analogues in human serum/plasma, metabolites by HPLC; format: in vitro ADME; conditions: human serum, radio-labelled with 177Lu, compared with PP-F11, PP-F10N and PP-F10
Experimental: 12 MBq of the radiolabelled compound was incubated in 2 mL fresh human plasma. A 40 μL probe was taken after 0, 1, 2, 18, 24, 48 and 72 h and added 200 μL (50% Methanol and 50% Acetonitril) in a Mini-UniPrep Filter. The solution is filtered after vortexing. 40 μL of the filtered solution is analyzed by HPLC.

[2] = test system: human CCK-2 receptor transfected A431 cells; assay: Biodistribution studies in CD1 nu/nu mice bearing CCK-2 receptor positive and mock A431 tumours; format: in vivo
Experimental: PP-F11N has been investigated according to the CD1 nu/nu mice model. […] FIG. 2 illustrates the biodistribution of PP-F11, PP-F11N and oxidized PP-F11 ox (oxidized PP-F11) after 4 hours in the athymic CD1 nu/nu mice model. Tumour positive: with human CCK-2 receptor transfected A431 cells on one side of the mouse; tumor negative: CCK-2 receptor negative A431 cells on the other side of the mouse. The effect of the higher tumor uptake by the exchange of methionine with norleucine is specifically apparent with compounds having the DGlu6 sequence, different from compounds having a sequence with DGLn6 which is referred to as PP-F10.
CD1 nu/nu mice were injected with 5×10^6 A431 cells. CCK-2 receptor positive A431 cells' were injected into one flank and mock cells on the other as an unspecific control. The tumors reach a weight of about 80 to 120 mg after about 10 days. 150-200 kBq (5 pmol) of the radiolabelled peptides were injected into the tail vein. Mice were killed by CO2 asphyxiation after defined time points post injection. The organs were dissected, weighted and the activity was measured. The % injected activity per gram (% i.A./g) was calculated. The animal experiments were approved by the local animal welfare committee and performed according to national regulations.

[3] = biodistribution after 4 hours, athymic CD1 nu/nu mice

CCCC[C@H](NC(=O)[C@H](Cc1c[nH]c2ccccc12)NC(=O)CNC(=O)[C@H](Cc1ccc(O)cc1)NC(=O)[C@H](C)NC(=O)[C@@H](CCC(=O)O)NC(=O)[C@@H](CCC(=O)O)NC(=O)[C@@H](CCC(=O)O)NC(=O)[C@@H](CCC(=O)O)NC(=O)[C@@H](CCC(=O)O)NC(=O)[C@@H](CCC(=O)O)NC(=O)CN1CCN(CC(=O)O)CCN(CC(=O)O)CCN(CC(=O)O)CC1)C(=O)N[C@@H](CC(=O)O)C(=O)N[C@@H](Cc1ccccc1)C(N)=O [PP-F11N]
pharmacologic stability [1]: highest pharmacologic stability of all probands
accumulation in the kidneys [2, 3]: very few
tumor-noise ratio [2, 3]: very favorable
tumor uptake ([2]; biodistribution after 4 hours, athymic CD1 nu/nu mice, CCK-2 receptor positive A431 tumour): significant higher
tumor-to-kidney ([2]; mouse, in vivo): best
